Converted amounts (≈) assume the structure as drawn. “And” between values parts separate entries of the source, which are not always exact repeats. Identical values can stand only once. Like-named read-outs stand apart in the source and are kept apart here.
Legend:
[1] = Cytotoxicity, resazurin, 72 h; type: cell-based, human; details: human
Description: (§1) The studied compounds were evaluated for cytotoxicity in human cancer cell lines (cervical carcinoma HeLa, chronic myelogenous leukemia K562 and breast adenocarcinoma MCF7) and normal human retina cells RPE-1 (ca. 5.0 × 10^4 cells·mL^−1) after 72 h of treatment using resazurin (Merck/MilliporeSigma, St. Louis, MO, USA) as described earlier for Calcein AM dye.

[2] = test system: Escherichia coli ATCC 35218; assay: Antibacterial activity, broth microdilution (MIC/MBC); type: cell-based; details: E. coli ATCC 35218; for MIC: 37 °C, 24 h
Description: (§2) The antibacterial activity of tested compounds was assessed by monitoring the cell growth of Staphylococcus aureus 8325-4 and Escherichia coli ATCC 35218 using the broth microdilution method, conducted according to the National Committee for Clinical Laboratory Standards. First, compounds were dissolved in methanol and the solution was added to Mueller Hinton broth (MHB) for bacteria to give a final concentration of 2000 µg/mL. The samples were then serially two-fold diluted in bullion to obtain concentration ranging from 1000 to 0.12 μg/mL in 96-well microtiter plate with the final volumes of 100 μL. Next, 100 μL of bacteria suspension was injected into each well. The final bacteria cell concentration was 1 × 10^6 colony-forming units per ml (CFU/mL). The plates were incubated at 37 °C for 24 h. The MIC value was determined as the lowest concentration of an antibacterial agent that inhibited bacterial growth, as indicated by the absence of turbidity. The MBC value was determined as the lowest concentration of antibacterial agents for which no bacterial growth on the plates was observed.

[3] = test system: Staphylococcus aureus 8325-4; assay: as above; type: cell-based; details: S. aureus 8325-4; for MIC: 37 °C, 24 h
Description: as §2

[4] = test system: S. aureus 8325-4 membrane proteins (Trp^214 residues); assay: Trp fluorescence quenching of bacterial membrane proteins (Stern-Volmer); type: binding, Staphylococcus aureus; details: for Stern-Volmer constant KSV: compound 0.5–2.0 µM, PBS pH 7.4, λexc 295 nm, λem 350 nm; for quenching constant kq: kq = KSV/τ0
From the text: (§3) Based on fluorescence analysis, the Stern-Volmer plots were drawn (Figure 5) using equation given below (Equation (1)). (1) F0/F=1+KSV[Q] where: F0 and F are the Trp fluorescence without and in the presence of quencher (studied compounds), KSV—Stern-Volmer constant, [Q]—concentration of the quencher.
(§4) In order to check whether studied compounds form complexes with bacterial cells proteins, the quenching constants (kq) have been calculated using equation below (Equation (2)) and are presented in Table 3. (2) kq=KSV/τ0 where: kq—quenching constant, KSV—Stern-Volmer constant, τ0—fluorescence lifetime of fluorophore molecules.
(§5) Bacteria strains: S. aureus and E. coli grown overnight at 37 °C in Mueller Hinton (MH) broth with shaking at 200 rpm. Next, bacteria suspensions were centrifuged (2300× g, 15 min) and resuspended in PBS after removing the supernatant. For experiments, bacteria suspensions (OD600 = 0.1 in C = 10 mM PBS buffer, pH = 7.4) have been used in the presence (concentration range 0.5–2.0 µM) and without the studied compounds. The measurements were performed in quartz cuvette (1 cm × 1 cm). Fluorescence was monitored at the λexc. = 295 nm and λem. = 350 nm from tryptophan (Trp^214) residues in bacterial membrane proteins. The studies were carried out using Perkin-Elmer LS-55B (Perkin-Elmer, Pontyclun, UK) spectrofluorometer.

[5] = test system: E. coli ATCC 35218 membrane proteins (Trp^214 residues); assay: as above; type: binding, Escherichia coli; details: for Stern-Volmer constant KSV: compound 0.5–2.0 µM, PBS pH 7.4, λexc 295 nm, λem 350 nm; for quenching constant kq: kq = KSV/τ0
From the text: as §3, §4, §5

[6] = test system: lung cancer cell line A549; set-up: method as in PMID 33402081, PMID 23751199; details: cited from earlier work
[7] = test system: breast adenocarcinoma MCF7; assay: Cytotoxicity, resazurin, 72 h; type: cell-based, human; details: MCF7, 72 h
Description: as §1

cervical carcinoma HeLa = assay: Cytotoxicity, resazurin, 72 h; type: cell-based, human
Description: as §1

[8] = test system: chronic myelogenous leukemia K562; assay: Cytotoxicity, resazurin, 72 h; type: cell-based, human; details: K562, 72 h
Description: as §1

[9] = test system: normal human retina cells RPE-1; assay: Cytotoxicity, resazurin, 72 h; type: cell-based; details: RPE-1 normal cells
Description: as §1

[10] = K562 chronic myelogenous leukemia cells, K562, 72 h
[11] = MCF7 breast adenocarcinoma cells, MCF7, 72 h
[12] = RPE-1 normal retina cells, RPE-1 normal cells
[13] = Escherichia coli, ATCC35218, read-out: MIC
[14] = Escherichia coli, ATCC35218, read-out: MBC
[15] = Staphylococcus aureus, 83254, read-out: MIC
[16] = Staphylococcus aureus, 83254, read-out: MBC

SMILES | IC50 at 72 h ([1]; HeLa cervical carcinoma cells) | IC50 at 72 h [1, 10] | IC50 at 72 h [1, 11] | IC50 at 72 h [1, 12] | melting point | MIC [2, 13] | MBC [2, 14] | MIC [3, 15] | MBC [3, 16] | Stern-Volmer constant KSV [4] | quenching constant kq [4] | Stern-Volmer constant KSV [5] | quenching constant kq [5] | also measured
CCC1C(C)CCC2(OC3CC4C5CC=C6CC(O)CCC6(C)C5CCC4(C)C3C2C)S1(=O)=O (stereo not drawn) [26-Ethylsulfone 12] | 44.1 ± 0.1 µM | > 50 µM | > 50 µM | > 50 µM | 210 to 212 °C |  |  |  |  |  |  |  |  | 
CC1CCC2(OC3CC4C5CC=C6CC(O)CCC6(C)C5CCC4(C)C3C2C)SC1 (stereo not drawn) [26-Thiodiosgenin (3), 26-thiodiosgenin] | > 50 µM | > 50 µM | > 50 µM | > 50 µM |  | 62.5 µg/mL and 145 µM | 125 µg/mL (≈ 290 µM) | 1.95 µg/mL and 4.5 µM | 3.9 µg/mL (≈ 9.06 µM) | 8.322 ± 0.142 10^4 M^−1 | 16.62 ± 0.23 10^12 M^−1s^−1 | 5.091 ± 0.152 10^4 M^−1 | 10.02 ± 0.28 10^12 M^−1s^−1 | MBC [2]: 125 µg/mL (≈ 290 µM); MIC [2]: 62.5 µg/mL (≈ 145 µM); MBC [3]: 3.9 µg/mL (≈ 9.06 µM); MIC [3]: 1.95 µg/mL (≈ 4.53 µM)
C[C@@H]1CC[C@]2(O[C@H]3C[C@H]4[C@@H]5CC=C6C[C@@H](O[C@@H]7O[C@H](CO)[C@@H](O[C@@H]8O[C@@H](C)[C@H](O)[C@@H](O)[C@H]8O)[C@H](O)[C@H]7O[C@@H]7O[C@@H](C)[C@H](O)[C@@H](O)[C@H]7O)CC[C@]6(C)[C@H]5CC[C@]4(C)[C@H]3[C@@H]2C)SC1 [26-thiodioscine] |  |  |  |  |  |  |  |  |  |  |  |  |  | IC50 [6]: 3.72 µM
CC1CCC2(CC1)O[C@H]1C[C@H]3[C@@H]4CC[C@H]5C[C@@H](O)CC[C@]5(C)[C@H]4CC[C@]3(C)[C@H]1[C@@H]2C (stereo partly drawn) [Carbaanalog 5] | 38.2 ± 0.8 µM | > 50 µM | > 50 µM | > 50 µM |  | 500 µg/mL and 1210 µM | 1000 µg/mL (≈ 2410 µM) | 7.8 µg/mL and 18.9 µM | 31.2 µg/mL (≈ 75.4 µM) | 1.258 ± 0.189 10^4 M^−1 | 2.52 ± 0.32 10^12 M^−1s^−1 | 2.021 ± 0.198 10^4 M^−1 | 4.04 ± 0.45 10^12 M^−1s^−1 | MIC [2]: 500 µg/mL (≈ 1210 µM); MIC [3]: 7.8 µg/mL (≈ 18.8 µM)
CC1CCC2(OC3CC4C5CC=C6CC(O)CCC6(C)C5CCC4(C)C3C2C)[S+]([O-])C1(C)C (stereo not drawn) [Dimethylsulfoxide 10] | 32.2 ± 1.7 µM | > 50 µM | > 50 µM | > 50 µM |  |  |  |  |  |  |  |  |  | 
C[C@@H]1CC[C@@]2(OC1)O[C@H]1C[C@H]3[C@@H]4CC=C5C[C@@H](O)CC[C@]5(C)[C@H]4CC[C@]3(C)[C@H]1[C@@H]2C [Diosgenin (1), diosgenin] |  |  |  |  |  | 250 µg/mL and 603 µM | 500 µg/mL (≈ 1210 µM) | 3.9 µg/mL and 9.4 µM | 15.6 µg/mL (≈ 37.7 µM) | 5.441 ± 0.131 10^4 M^−1 | 10.93 ± 0.27 10^12 M^−1s^−1 | 3.384 ± 0.165 10^4 M^−1 | 6.76 ± 0.35 10^12 M^−1s^−1 | MBC [2]: 500 µg/mL (≈ 1210 µM); MIC [2]: 250 µg/mL (≈ 603 µM); MBC [3]: 15.615 µg/mL (≈ 37.7 µM); MIC [3]: 3.9 µg/mL (≈ 9.41 µM); IC50 at 72 h ([1]; HeLa): > 50 µM; IC50 at 72 h ([1]; RPE-1 normal cells): > 50 µM; IC50 at 72 h ([1]; K562, 72 h): > 50 µM; IC50 at 72 h ([1]; MCF7, 72 h): > 50 µM
CC1CCC2(OC3CC4C5CC6OC67CC(O)CCC7(C)C5CCC4(C)C3C2C)S(=O)(=O)C1 (stereo not drawn) [Epoxysulfone 9] | > 50 µM | > 50 µM | > 50 µM | > 50 µM |  |  |  |  |  |  |  |  |  | 
CC1CCC2(OC3CC4C5CC=C6CC(O)CCC6(C)C5CCC4(C)C3C2C)S(=O)(=O)C1 (stereo not drawn) [Sulfone 8] | > 50 µM | > 50 µM | > 50 µM | > 50 µM | 205 to 207 °C | 125 µg/mL and 270 µM | 250 µg/mL (≈ 540 µM) | 3.9 µg/mL and 8.4 µM | 7.8 µg/mL (≈ 16.9 µM) | 2.915 ± 0.175 10^4 M^−1 | 5.82 ± 0.31 10^12 M^−1s^−1 | 2.962 ± 0.105 10^4 M^−1 | 5.92 ± 0.16 10^12 M^−1s^−1 | 
CC1CCC2(OC3CC4C5CC=C6CC(O)CCC6(C)C5CCC4(C)C3C2C)[S+]([O-])C1 (stereo not drawn) [Sulfoxide 6] | > 50 µM | > 50 µM | > 50 µM | > 50 µM | 143 to 146 °C | 125 µg/mL and 280 µM | 250 µg/mL (≈ 560 µM) | 3.9 µg/mL and 8.7 µM | 7.8 µg/mL (≈ 17.5 µM) | 4.051 ± 0.170 10^4 M^−1 | 8.14 ± 0.35 10^12 M^−1s^−1 | 1.456 ± 0.201 10^4 M^−1 | 2.92 ± 0.36 10^12 M^−1s^−1 | 
CC1CCC2(OC3CC4C5CC=C6CC(O)CCC6(C)C5CCC4(C)C3C2C)[S+]([O-])C1 (stereo not drawn) [Sulfoxide 7] |  |  |  |  | 165 to 166 °C |  |  |  |  |  |  |  |  | IC50 [7]: > 50 µM; IC50 (cervical carcinoma HeLa): 34.3 ± 3 µM; IC50 [8]: > 50 µM; IC50 [9]: > 50 µM
C[C@@H]1CC[C@@]2(OC1)O[C@H]1C[C@H]3[C@@H]4CC=C5C[C@@H](O[C@@H]6O[C@H](CO)[C@@H](O[C@@H]7O[C@@H](C)[C@H](O)[C@@H](O)[C@H]7O)[C@H](O)[C@H]6O[C@@H]6O[C@@H](C)[C@H](O)[C@@H](O)[C@H]6O)CC[C@]5(C)[C@H]4CC[C@]3(C)[C@H]1[C@@H]2C [dioscine] |  |  |  |  |  |  |  |  |  |  |  |  |  | IC50 [6]: 4.02 µM
CC1CCC2(OC3CC4C5CC=C6CC(O)CCC6(C)C5CCC4(C)C3C2C)S(=O)(=O)C1C (stereo not drawn) [α-Methylsulfone 11] | 92.3 µM | > 50 µM | > 50 µM | > 50 µM | 225 to 227 °C | 125 µg/mL and 262 µM | 250 µg/mL (≈ 524 µM) | 3.9 µg/mL and 8.2 µM | 7.8 µg/mL (≈ 16.4 µM) | 3.442 ± 0.168 10^4 M^−1 | 6.84 ± 0.34 10^12 M^−1s^−1 | 2.470 ± 0.101 10^4 M^−1 | 4.94 ± 0.17 10^12 M^−1s^−1 | 
